# Data from US20240228501A1, “IMIDAZOLE-CONTAINING CONDENSED RING DERIVATIVE, PREPARATION METHOD THEREFOR, AND APPLICATION THEREOF IN MEDICINE” (CHANGCHUN GENESCIENCE PHARMACEUTICAL CO., LTD., priority 2021, published 2024).
# Where two headings read alike, the source gives them in different places.
# Legend:
# [1] = Pharmacokinetic test in rats (gavage 3 mg/kg, intravenous 1 mg/kg); type: in vivo; conditions: rat, plasma, SD rats; for bioavailability: gavage 3 mg/kg vs intravenous 1 mg/kg, read-out: Oral bioavailability F (%); for Cmax: read-out: Blood concentration Cmax; for AUC: read-out: Curve area AUC; for half-life: read-out: Half life T1/2 (converted)
# Experimental: Test Example 2: Pharmacokinetic Test of Compounds of the present invention in Rats
# To study in vivo pharmacokinetic behaviors of the compounds of the present invention in rats, and evaluate pharmacokinetic characteristics thereof.
# An appropriate amount of sample was weighed, and ultrasonically prepared into a 0.3 mg/mL suspension for the gavage administration group; and was prepared into a 0.2 mg/mL suspension for the intravenous administration group as per a formula of 5% DMSO+10% Solutol+85% (20% SBE-β-CD).
# SD rats were fasted overnight, and then administered by gavage at a dosage of 3 mg/kg and by intravenous injection at a dosage of 1 mg/kg, respectively.
# 0.1 mL of blood was collected before administration and at 5 min, 15 min, 30 min, 1 h, 2 h, 4 h, 8 h, and 24 h after administration, transferred into heparinized tubes, and centrifuged at 3500 rpm for 10 min to separate the plasma, which was stored at −20° C. 4 h after administration, the animals were resumed for feeding/free access to water.
# Contents of the test compounds in plasma of the rats after gavage administration were determined by LC/MS/MS.
# human NK-3 receptor = target: T1, human NK-3 receptor (Homo sapiens, UniProt P29371); assay: Antagonistic activity on human NK-3 receptor in human NK-3R/HEK293 stably transfected cells (Fluo-4, FLIPR, Neurokinin B as agonist); type: cell-based; conditions: human NK-3R/HEK293 cells
# T1 construct: expressed in transfected cells; host or cells: HEK293
# T1 sequence (P29371 1-465): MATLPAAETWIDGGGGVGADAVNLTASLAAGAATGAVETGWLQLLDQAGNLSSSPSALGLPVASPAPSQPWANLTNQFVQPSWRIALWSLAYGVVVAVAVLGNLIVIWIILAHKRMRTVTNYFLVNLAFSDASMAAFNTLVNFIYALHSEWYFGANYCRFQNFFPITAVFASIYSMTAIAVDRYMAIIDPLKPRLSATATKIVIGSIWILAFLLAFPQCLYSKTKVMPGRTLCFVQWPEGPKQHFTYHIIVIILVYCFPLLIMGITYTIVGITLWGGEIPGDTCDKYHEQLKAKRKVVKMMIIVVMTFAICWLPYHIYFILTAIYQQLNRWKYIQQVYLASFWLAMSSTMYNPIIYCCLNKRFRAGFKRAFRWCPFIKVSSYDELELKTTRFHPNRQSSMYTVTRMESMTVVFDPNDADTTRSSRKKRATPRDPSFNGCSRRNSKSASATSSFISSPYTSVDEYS
# Experimental: Test Example 1: Determination of Activity of Compounds of the Present Invention on Human NK-3 Receptor
# This method is used to determine antagonistic effects of the compounds of the present invention on the activity of human NK-3 receptor proteins expressed in cell lines stably transfected with human NK-3R/HEK293.
# 2.1 The cell lines stably transfected with human NK-3R/HEK293 were inoculated in a 384-well cell culture plate at a inoculation density of 12,000 cells/well/25 μL, and cultured at 37° C. and 5% CO2 overnight;
# 2.2 20× Component A was frozen and thawed to room temperature, diluted 2× with Assay Buffer to working concentration, and kept at room temperature for later use;
# 2.3 The cell culture plate was equilibrated at room temperature for 10 min, the culture medium was removed, and 20 μL of Assay Buffer and 20 μL of 2× Component A […] were added, followed by centrifugation at 200 g at room temperature for 3-5 sec, and incubation at 37° C. for 2 h;
# 2.4 The compound was diluted 3 times with DMSO in 384 PP_DMSO plate, and then 240 nl/well of the compound was transferred into a working plate with Echo 550, centrifugated at 200 g at room temperature for 1 min; 40 μl of Assay Buffer was added into the working plate, centrifugated at 200 g at room temperature for 1 min, and then fully mixed in an oscillator at 2500 rpm for 20 min, and then centrifugated at 200 g at room temperature for 1 min for later use;
# 2.5 2.5 nM Neurokinin B TFA (6×) was prepared from Assay Buffer, 50 uL of which was transferred onto 3657 plate for later use;
# 2.6 The cell culture plate was taken out and left to stand at room temperature for 10 min, then […] the compound diluted in step 2.4 was added into corresponding wells, and the cell culture plate was left to stand at 25° C. for 30 min; and
# 2.7 10 μL of the compound diluted in step 2.5 was added into the corresponding experimental wells with FLIPR Tetra, and data was collected.
# The antagonistic activity of the compounds of the present invention on the human NK-3 receptor was determined through the above experiments, to obtain inhibition curves of the compounds of the present invention and determine concentrations (IC50) of the corresponding compounds that inhibit 50% of the reference agonist.
# MDR1 = assay: In vitro brain model test: MDR1-MDCKII bidirectional permeability; type: in vitro ADME; conditions: dog; for Papp A→B at 2.5 h, 2 μM / Papp B→A at 2.5 h, 2 μM: MDCK-MDR1, pH 7.4, 2 μM, pH7.4; for efflux ratio at 2.5 h, 2 μM: MDCK-MDR1, pH 7.4, B to A / A to B, read-out: Efflux rate
# Experimental: The test product was diluted from dimethyl sulfoxide stock solution to a concentration of 2 μM (dimethyl sulfoxide <1%) with a transfer buffer (HBSS containing 10 mM Hepes, pH7.4); and was applied to apical or basolateral cavities of the cell monolayer. Penetration of the test compound from the direction A to the direction B or from the direction B to the direction A was determined in duplicate. Digoxin was detected at 10 μM in the direction of A-B, or detected in the direction of B-A, while Nadolol and Metoprolol were detected at 2 μM in the direction of A-B in duplicate. The plate was cultivated in a CO2 incubator at 37±1° C. for 2.5 h with 5% CO2 at a saturated humidity without shaking. Further, the efflux rate of each compound was also determined. According to the peak area ratio of analyte/IS, the test product and the control product were quantitatively analyzed by LC-MS/MS.
# After the transfer test, the monolayer integrity of cells was determined by a lucifer yellow exclusion assay. Buffer was removed from apical and basolateral cavities, and then 75 μL of 100 μM lucifer yellow and 250 μL of transfer buffer were added into the apical and basolateral cavities, respectively. The culture dish was cultivated at 37° C., 5% CO2, and saturated humidity for 30 min without shaking. After incubation for 30 min, 20 μL of lucifer yellow sample was extracted from the top, and then 60 μL of the transfer buffer was added. Then, 80 μL of lucifer yellow sample was extracted basolaterally. Relative Fluorescence Units (RFU) of lucifer yellow were measured at 425/528 nm (excitation/emission) with an Envision plate reader.
SMILES,bioavailability ([1]; po),"Cmax ([1]; po, gavage 3 mg/kg)","AUC ([1]; po, gavage 3 mg/kg)","half-life ([1]; po, gavage 3 mg/kg)",AUC ([1]; intravenous injection 1 mg/kg),half-life ([1]; intravenous injection 1 mg/kg),IC50 (human NK-3 receptor),"Papp A→B at 2.5 h, 2 μM (MDR1)","Papp B→A at 2.5 h, 2 μM (MDR1)","efflux ratio at 2.5 h, 2 μM (MDR1)"
"Cc1nsc(-c2nc(N3C[C@H](F)CC3=O)c3n2CCN(C(=O)c2ccc(F)cc2)[C@@H]3C)n1 [Compound 107, (R)-4-fluoro-1-[(R)-7-(4-fluorobenzoyl)-8-methyl-3-(3-methyl-1,2,4-thiadiazol-5-yl)-5,6,7,8-tetrahydroimidazo[1,5-a]pyrazin-1-yl]pyrrolidin-2-one]",65.6%,348 ± 104 ng/mL,1860 ± 303 ng·h/mL,281 ± 70.8 min,842 ± 66.3 ng·h/mL,56.4 ± 11.4 min,15.4 nM,–,–,–
"Cc1nsc(-c2nc(N3Cc4ccccc4C3=O)c3n2CCN(C(=O)c2ccc(F)cc2)[C@@H]3C)n1 [Compound 085, (R)-2-(7-(4-fluorobenzoyl)-8-methyl-3-(3-methyl-1,2,4-thiadiazol-5-yl)-5,6,7,8-tetrahydroimidazo[1,5-a]pyrazin-1-yl)isoindolin-1-one]",–,–,–,–,–,–,12.8 nM,28 ×10⁻⁶ cm/s,18.7 ×10⁻⁶ cm/s,0.67
"Cc1nsc(-c2nc(N3CCCC3=O)c3n2CCN(C(=O)c2ccc(F)cc2)[C@@H]3C)n1 [Compound 068, (R)-1-(7-(4-fluorobenzoyl)-8-methyl-3-(3-methyl-1,2,4-thiadiazol-5-yl)-5,6,7,8-tetrahydroimidazo[1,5-a]pyrazin-1-yl)pyrrolidin-2-one]",73.4%,1030 ± 101 ng/mL,2890 ± 794 ng·h/mL,214 ± 83.4 min,1280 ± 264 ng·h/mL,61.2 ± 9.6 min,8.36 nM,–,–,–

# Second part, the compound after the results:
bioavailability ([1]; po),"Cmax ([1]; po, gavage 3 mg/kg)","AUC ([1]; po, gavage 3 mg/kg)","half-life ([1]; po, gavage 3 mg/kg)",AUC ([1]; intravenous injection 1 mg/kg),half-life ([1]; intravenous injection 1 mg/kg),IC50 (human NK-3 receptor),"Papp A→B at 2.5 h, 2 μM (MDR1)","Papp B→A at 2.5 h, 2 μM (MDR1)","efflux ratio at 2.5 h, 2 μM (MDR1)",SMILES
–,–,–,–,–,–,13.6 nM,22.9 ×10⁻⁶ cm/s,16.1 ×10⁻⁶ cm/s,0.7,"Cc1nsc(-c2nc(-c3ccnc(F)c3F)c3n2CCN(C(=O)c2ccc(F)cc2)[C@@H]3C)n1 [Compound 074, (R)-(1-(2,3-difluoropyridin-4-yl)-8-methyl-3-(3-methyl-1,2,4-thiadiazol-5-yl)-5,6-dihydroimidazo[1,5-a]pyrazin-7 (8H)-yl)(4-fluorophenyl)methanone]"
–,–,–,–,–,–,–,19.2 ×10⁻⁶ cm/s,12.2 ×10⁻⁶ cm/s,0.64,"Cc1nsc(-c2nc(-c3cc(F)ncc3O)c3n2CCN(C(=O)c2ccc(F)cc2)[C@@H]3C)n1 [Compound 165, (R)-(1-(2-fluoro-5-hydroxypyridin-4-yl)-8-methyl-3-(3-methyl-1,2,4-thiadiazol-5-yl)-5,6-dihydroimidazo[1,5-a]pyrazin-7 (8H)-yl)(4-fluorophenyl)methanone]"
83.1%,1290 ± 133 ng/mL,5580 ± 241 ng·h/mL,235 ± 39.7 min,2240 ± 418 ng·h/mL,177 ± 51.3 min,30.4 nM,–,–,–,"CC(=O)Nc1nc(-c2nc(C)ns2)n2c1[C@@H](C)N(C(=O)c1ccc(F)cc1)CC2 [Compound 034, (R)—N-(7-(4-fluorobenzoyl)-8-methyl-3-(3-methyl-1,2,4-thiadiazol-5-yl)-5,6,7,8-tetrahydroimidazo[1,5-a]pyrazin-1-yl)acetamide]"
–,–,–,–,–,–,17 nM,24 ×10⁻⁶ cm/s,15.9 ×10⁻⁶ cm/s,0.66,"Cc1nsc(-c2nc(-c3ccnc(F)c3)c3n2CCN(C(=O)c2ccc(F)cc2)[C@@H]3C)n1 [Compound 044, (R)-(4-fluorophenyl)(1-(2-fluoropyridin-4-yl)-8-methyl-3-(3-methyl-1,2,4-thiadiazol-5-yl)-5,6-dihydroimidazo[1,5-a]pyrazin-7 (8H)-yl)methanone]"
